Consider 19 compounds from patent publication US4466980A, “Thiaprostaglandin E1 derivatives, process for production thereof, and pharmaceutical use thereof” (Teijin Limited, priority 1980, dated 1984).

Assay [1] has as its system platelet aggregation. Description: in vitro inhibitory activity of platelet aggregation (ADP). The class given is cell-based, rabbit (Japanese domestic white male). Particulars: Oryctolagus cuniculus, rabbit PRP, 10 μM ADP, 37° C., read-out: IC50 (minimum concentration which inhibited more than 50% of platelet aggregation). Here is the method: The in vitro platelet aggregation imhibiting activity of the compounds of the invention were examined by using rabbits. Blood was withdrawn from the ear vein of Japanese domestic white male rabbits weighing 2.5 to 3.5 kg. A mixture of a 3.8% trisodium citrate solution and the blood in a ratio of 1:9 was centrifuged at a speed of 1000 rpm for 10 minutes. The upper layer was separated as platelet-rich plasma (PRP). The lower layer was further centrifuged at a speed of 2800 rpm for 10 minutes. The upper layer was separated as platelet-poor plasma (PPP). The number of platelets was adjusted to 6×10^5 /μl to 7×10^5 /μl by diluting the PRP with PPP. 25 microliters of the test compounds prepared as shown below was added in an amount of 25 to 250 microliters of PRP after the adjustment, and the mixture was pre-incubated at 37° C. for 2 minutes, and then 10 μM (final) of ADP was added. By using an aggregometer, changes in transmission were recorded.
The drug was dissolved in ethanol to a concentration of 10 mg/ml, and successively diluted with phosphate buffer (pH 7.4) prior to use.
The rate of inhibition of platelet aggregation was determined from the following equation. [formula] To : the transmittance of the system containing the phosphate buffer, T: the transmittance of the sytem to which the test drug was added.
The minimum concentration of the drug which inhibited more than 50% of platelet aggregation was shown as an IC50 value.

In assay [2] the test system is blood pressure and heart beat rate of rats. Briefly: hypotensive activity and heart beat rate, intravenous injection in anesthetized rats. The class given is in vivo, male wister rats. The conditions noted are these: Rattus norvegicus, i.v.; for ED (10% increase of heart rate): read-out: H-ED10 (dosage causing a 10% increase of the heart rate); for ED (20% lowering of blood pressure): read-out: P-ED20 (dosage causing a 20% lowering of the mean blood pressure). How it is done: (1) The actions of the thiaprostaglandin E1 derivatives of the invention on the blood pressure and heart beat rate of rats were examined by intravenous injection under anesthesia. Male wister rats weighing about 250 g were used. Urethane (500 mg/kg) and α-chloralose (100 mg/kg) were intraperitoneally administered to the rats. The rats were anesthetized and fixed in place. Each of the test compounds was dissolved in a small amount of ethanol and diluted with physiological saline to adjust the final ethanol concentration to not more than 5%. The solution was intravenously injected into the rats through a catheter inserted into the femoral vein. The blood pressure of the rats was measured by a pressure transducer through a catheter inserted into the carotid artery of the rats. The heart beat rate was determined from the blood pressure pulse. The action of the test compound of the blood pressure was expressed as the dosage (p-ED20, μg/kg) of the test compound which caused a 20% lowering of the mean blood pressure before administration of the compound. The action of the test compound on the heart rate was expressed as the dosage (H-ED10, μg/kg) of the test compound which caused a 10% increase of the heart rate from the heart beat rate before administration of the test compound.

In assay [3] the test system is platelet aggregation. Briefly: extra vivo inhibitory activity of platelet aggregation after oral administration. The assay is classed as in vivo, guinea pigs (Hartley strain). Particulars: Cavia porcellus; for inhibition at 3 mg/kg: 3 mg/kg p.o.; for inhibition at 10 mg/kg: 10 mg/kg p.o. How it is done: The extra vivo platelet aggregation inhibitory activity of the 7-thiaprostaglandin E1 derivatives of the invention were measured by using guinea pigs. A test drug prepared as a 30% ethanol solution of each of the compounds of the invention in ethanol diluted with physiological saline and as a control 30% ethanol solution were orally adminstered in a dose of 1 ml/kg to Hartleystrain guinea pigs having a body weight of 350 to 450 g which had been fasted for 17 hours. 1 hour or 4 hours after the administration of the compound, blood was drawn off by the cardiac puncture using trisodium citrate so that the ratio of the blood to 3.8% trisodium citrate was 9:1. The blood was centrifuged at a speed of 700 rpm for 10 minutes. The upper layer was separated as plateletrich plasma (PRP). The lower layer was further centrifuged at a speed of 2800 rpm for 10 minutes. The upper layer was separated as platelet poor plasma (PPP). 250 microliters of the resulting PRP was taken into an aggregometer cuvette, and incubated at 37° C. for 2 minutes. Then, 25 microliters of a […] ADP disodium solution adjusted by dissolving with 0.1M tris-HCl buffer (ph 8.0) was added. The aggregation curve was recorded for 3 minutes. The maximum degree of aggregation of platelets within this time period was read, and the rate of inhibitor of platelet aggregation was calculated from the following equation. [formula] TC : the transmittance of a control group (to which only the 30% ethanol solution was administered),
TD : the transmittance of a drug administered group.

Values after ≈ are worked out from the molar mass of the structure shown. Bounds are passed on as bounds.

With `CCCC(C)CC(O)/C=C/[C@H]1CCC(=O)[C@@H]1SCCCCCC(=O)OC` (relative stereo) [reference compound], the IC50 with platelet aggregation [1] is above 100 µg/mL.

With `CCCCC[C@H](O)/C=C/[C@H]1[C@H](SCCCCCC(=O)OC)C(=O)C[C@@H]1O` [15-epi-ent of Compound 124], the IC50 with platelet aggregation [1] amounted to 8.9 µg/mL (≈ 23 µM).

On to `COC(=O)CCCCCS[C@@H]1C(=O)C[C@H](O)[C@H]1/C=C/[C@@H](O)C1CCCCC1` [15-epi-ent of Compound 138], for which, in the assay with platelet aggregation [1], the IC50 came to 0.11 µg/mL (≈ 0.276 µM). As for `O=C(O)CCCCCS[C@H]1C(=O)C[C@@H](O)[C@@H]1/C=C/[C@@H](O)C1CCCCC1` [Compound 111, 16,17,18,19,20-pentanor-15-cyclohexyl-7-thiaprostaglandin E1], in assay [2], the ED (10% increase of heart rate) stood at 2.5 µg/kg and the ED (20% lowering of blood pressure) was 1.17 µg/kg. The IC50 in the assay on platelet aggregation [1] is 0.004 µg/mL (≈ 0.0104 µM). On to `CCCCC[C@H](O)/C=C/[C@H]1[C@H](O)CC(=O)[C@@H]1SCCCCCC(=O)OC` [Compound 124, 7-Thiaprostaglandin E1 methyl ester], for which the IC50 in the assay with platelet aggregation [1] was found to be 0.47 µg/mL (≈ 1.22 µM). In the case of `CCCC[C@H](C)C[C@H](O)/C=C/[C@H]1[C@H](O)CC(=O)[C@@H]1SCCCCCC(=O)OC` [Compound 131, 17(S),20-dimethyl-7-thiaprostaglandin E1 methyl ester], testing at 3 mg/kg in the assay on platelet aggregation [3] (1 hr) gave an inhibition of 100%. Moreover, in assay [2], the ED (10% increase of heart rate) worked out at 0.83 µg/kg and the ED (20% lowering of blood pressure) came to 2.3 µg/kg. For the same compound, in the assay on platelet aggregation [1], the IC50 was 0.0006 µg/mL (≈ 0.00145 µM).

For the compound `CCCC[C@@H](C)C[C@H](O)/C=C/[C@H]1[C@H](O)CC(=O)[C@@H]1SCCCCCC(=O)OC` [Compound 134, 17(R),20-dimethyl-7-thiaprostaglandin E1 methyl ester], the IC50 in the assay on platelet aggregation [1] amounted to 0.0018 µg/mL (≈ 0.00434 µM). The same measure, in the same setting: in the case of `CCCCCCCCCCOC(=O)CCCCCS[C@H]1C(=O)C[C@@H](O)[C@@H]1/C=C/[C@@H](O)C1CCCCC1` [Compound 143, 16,17,18,19,20-pentanor-15-cyclohexyl-7-thiaprostaglandin E1 decyl ester] it was 0.058 µg/mL (≈ 0.111 µM). Regarding `O=C(CCCCCS[C@H]1C(=O)C[C@@H](O)[C@@H]1/C=C/[C@@H](O)C1CCCCC1)Oc1ccccc1` [Compound 144, 16,17,18,19,20-pentanor-15-cyclohexyl-7-thiaprostaglandin E1 phenyl ester], in the assay with platelet aggregation [3] (1 hr), 3 mg/kg produced 37.4% inhibition and the inhibition (in general, the percentage by which the read-out fell short of the control) at 10 mg/kg was 85.4%. In the assay on platelet aggregation [3] (4 hr), this compound returned an inhibition at 3 mg/kg of 3% and an inhibition at 10 mg/kg of 79.2%. In assay [2], the ED (10% increase of heart rate) is 2.6 µg/kg and the ED (20% lowering of blood pressure) worked out at 3.4 µg/kg. In addition, in the assay with platelet aggregation [1], the IC50 stood at 0.015 µg/mL (≈ 0.0326 µM). In the case of `O=C(CCCCCS[C@H]1C(=O)C[C@@H](O)[C@@H]1/C=C/[C@@H](O)C1CCCCC1)OCc1ccccc1` [Compound 147, 16,17,18,19,20-pentanor-15-cyclohexyl-7-thiaprostaglandin E1 benzyl ester], the inhibition at 10 mg/kg with platelet aggregation [3] (1 hr) came out at 54%; with platelet aggregation [3] (4 hr) it was 28.9%. In the assay on platelet aggregation [1], the IC50 amounted to 0.054 µg/mL (≈ 0.114 µM).

Consider `COC(=O)C(C)CCCCS[C@H]1C(=O)C[C@@H](O)[C@@H]1/C=C/[C@@H](O)C1CCCCC1` (stereo partly shown) [Compound 150, 16,17,18,19,20-pentanor-15-cyclohexyl-2-methyl-7-thiaprostaglandin E1 methyl ester], for which the inhibition at 10 mg/kg is 20.8% in the assay on platelet aggregation [3] (1 hr) and 0.7% with platelet aggregation [3] (4 hr). In addition, in the assay with platelet aggregation [1], the IC50 came to 0.52 µg/mL (≈ 1.26 µM). For `COC(=O)/C=C/CCCS[C@H]1C(=O)C[C@@H](O)[C@@H]1/C=C/[C@@H](O)C1CCCCC1` [Compound 156, 16,17,18,19,20-pentanor-15-cyclohexyl-2,3-dehydro-7-thiaprostaglandin E1 methyl ester], the IC50 in the assay on platelet aggregation [1] was found to be 0.091 µg/mL (≈ 0.229 µM). `CCCC[C@H](C)C[C@H](O)/C=C/[C@H]1[C@H](O)CC(=O)[C@@H]1SCCC/C=C/C(=O)OC` [Compound 160, 17(S),20-dimethyl-2,3-dehydro-7-thiaprostaglandin E1 methyl ester]: the IC50 in the assay on platelet aggregation [1] stood at 0.64 µg/mL (≈ 1.55 µM).

Turning to `CCCCC[C@H](O)/C=C/[C@H]1[C@H](O)CC(=O)[C@@H]1CSCCCCC(=O)O` [Compound 300, 6-thiaprostaglandin E1], the IC50 with platelet aggregation [1] was found to be 0.45 µg/mL (≈ 1.21 µM).

For the compound `O=C(O)CCCCSC[C@H]1C(=O)C[C@@H](O)[C@@H]1/C=C/[C@@H](O)C1CCCCC1` [Compound 303, 16,17,18,19,20-pentanor-15-cyclohexyl-6-thiaprostaglandin E1], in the assay with platelet aggregation [1], the IC50 was found to be 0.27 µg/mL (≈ 0.702 µM). Turning to `CCCCC[C@H](O)/C=C/[C@H]1[C@H](O)CC(=O)[C@@H]1CSCCCCC(=O)OC` [Compound 305, 6-thiaprostaglandin E1 methyl ester], in the assay with platelet aggregation [1], the IC50 is 6 µg/mL (≈ 15.5 µM). Still for that read-out and setting: as for `COC(=O)CCCCSC[C@H]1C(=O)C[C@@H](O)[C@@H]1/C=C/[C@@H](O)C1CCCCC1` [Compound 308, 16,17,18,19,20-pentanor-15-cyclohexyl-6-thiaprostaglandin E1 methyl ester], the figure is 0.32 µg/mL (≈ 0.803 µM); as for `CCCCC[C@H](O)/C=C/[C@H]1[C@H](O)CC(=O)[C@@H]1CCCSCCC(=O)OC` [Compound 405, 4-thiaprostaglandin E1 methyl ester], 8.6 µg/mL (≈ 22.2 µM); as for `COC(=O)CCSCCC[C@H]1C(=O)C[C@@H](O)[C@@H]1/C=C/[C@@H](O)C1CCCCC1` [Compound 413], 2.4 µg/mL (≈ 6.02 µM).
